Reference: PMC9040055, “Triterpenes from Pholiota populnea as Cytotoxic Agents and Chemosensitizers to Overcome Multidrug Resistance of Cancer Cells” (Journal of Natural Products, 2022)
Entries after “also recorded” stand apart in the source; their conditions may differ. Like-named read-outs stand apart in the source and are kept apart here.

Assays:
[1] = tested on: Colo 205 doxorubicin-sensitive colon adenocarcinoma cells; experiment: MTT assay for cytotoxic effect, Colo 205; assay type: cell-based, human; conditions: 24 h incubation, triplicate, read-out: Colo205 (IC50 μM) mean
Experimental: (§1) The human colon adenocarcinoma cell lines, the Colo 205 (ATCC-CCL-222) doxorubicin-sensitive parent and Colo 320/MDR-LRP (ATCC-CCL-220.1) resistant to anticancer agents expressing ABCB1, were purchased from LGC Promochem (Teddington, UK). […] The cell lines were incubated in a humidified atmosphere (5% CO2, 95% air) at 37 °C. The effects of increasing concentrations of the compounds on cell growth were tested in 96-well flat-bottomed microtiter plates. The 2-fold serial dilutions of the tested compounds were made starting with 100 μM. Then, 10^4 human colonic adenocarcinoma cells in 100 μL of the medium (RPMI-1640) were added to each well, except for the medium control wells. The adherent human embryonic lung fibroblast cell line (10^4/well) was seeded in EMEM medium in 96-well flat-bottomed microtiter plates for 4 h before the assay. The serial dilutions of the compounds were made in a separate plate starting with 100 μM and then transferred to the plates containing the adherent corresponding cell line. Culture plates were incubated at 37 °C for 24 h; at the end of the incubation period, 20 μL of MTT (thiazolyl blue tetrazolium bromide) solution (from a 5 mg/mL stock solution) was added to each well. After incubation at 37 °C for 4 h, 100 μL of sodium dodecyl sulfate (SDS) solution (10% SDS in 0.01 M HCl) was added to each well, and the plates were further incubated at 37 °C overnight. Cell growth was determined by measuring the optical density (OD) at 540 nm (ref 630 nm) with a Multiscan EX ELISA reader (Thermo Labsystems, Cheshire, WA, USA). […] IC50 values and the SD of triplicate experiments were calculated by using GraphPad Prism software version 5.00 for Windows with nonlinear regression curve fit (GraphPad Software, San Diego, CA, USA; www.graphpad.com).

[2] = tested on: Colo 320/MDR-LRP resistant colon adenocarcinoma cells; experiment: MTT assay for cytotoxic effect, Colo 320; assay type: cell-based, human; conditions: 24 h incubation, triplicate, read-out: Colo320 (IC50 μM) mean
Experimental: as §1

[3] = MTT assay for cytotoxic effect, MRC-5; assay type: cell-based, human; conditions: human
Experimental: as §1

[4] = molecular target: P-glycoprotein (ABCB1) in MDR Colo 320 cells (Homo sapiens, UniProt P08183); experiment: Rhodamine 123 accumulation assay (P-gp efflux pump inhibition); assay type: cell-based
Sequence of P-glycoprotein (ABCB1) in MDR Colo 320 cells (P08183 whole entry): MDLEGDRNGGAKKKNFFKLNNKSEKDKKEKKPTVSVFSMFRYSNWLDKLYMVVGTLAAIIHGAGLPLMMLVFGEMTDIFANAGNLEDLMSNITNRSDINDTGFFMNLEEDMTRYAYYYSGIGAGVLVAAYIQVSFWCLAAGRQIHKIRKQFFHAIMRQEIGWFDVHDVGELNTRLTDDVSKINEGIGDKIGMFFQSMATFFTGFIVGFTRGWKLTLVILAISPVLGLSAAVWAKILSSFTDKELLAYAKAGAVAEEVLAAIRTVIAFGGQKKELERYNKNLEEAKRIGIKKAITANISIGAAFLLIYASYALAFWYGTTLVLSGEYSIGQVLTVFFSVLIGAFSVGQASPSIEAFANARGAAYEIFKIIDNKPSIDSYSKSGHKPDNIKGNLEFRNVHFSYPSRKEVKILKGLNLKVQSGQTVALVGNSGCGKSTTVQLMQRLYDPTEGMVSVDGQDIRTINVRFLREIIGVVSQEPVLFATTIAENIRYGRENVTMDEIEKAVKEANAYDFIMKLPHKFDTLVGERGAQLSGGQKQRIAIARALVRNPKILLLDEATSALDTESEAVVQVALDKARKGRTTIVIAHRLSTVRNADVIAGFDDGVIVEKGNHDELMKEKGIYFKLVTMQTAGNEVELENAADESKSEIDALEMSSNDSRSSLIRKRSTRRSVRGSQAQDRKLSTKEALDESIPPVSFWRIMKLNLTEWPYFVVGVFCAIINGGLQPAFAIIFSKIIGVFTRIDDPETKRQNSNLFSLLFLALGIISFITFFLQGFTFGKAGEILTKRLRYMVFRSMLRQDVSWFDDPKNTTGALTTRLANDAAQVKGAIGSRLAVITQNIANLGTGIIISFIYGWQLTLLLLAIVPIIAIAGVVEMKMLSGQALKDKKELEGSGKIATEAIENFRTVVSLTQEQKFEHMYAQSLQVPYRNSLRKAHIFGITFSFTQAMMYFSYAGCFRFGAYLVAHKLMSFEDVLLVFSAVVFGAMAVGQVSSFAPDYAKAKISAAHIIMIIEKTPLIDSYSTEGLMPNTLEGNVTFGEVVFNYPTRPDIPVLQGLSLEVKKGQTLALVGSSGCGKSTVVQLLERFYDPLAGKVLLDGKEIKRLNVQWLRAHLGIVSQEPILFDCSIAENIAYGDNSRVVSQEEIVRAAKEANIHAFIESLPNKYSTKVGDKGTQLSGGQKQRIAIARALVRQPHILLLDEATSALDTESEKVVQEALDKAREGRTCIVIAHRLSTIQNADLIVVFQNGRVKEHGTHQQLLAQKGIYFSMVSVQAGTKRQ
Experimental: The inhibitory activities of compounds 1–3, 5, and 6 on efflux function were evaluated by measuring the intracellular accumulation of rhodamine 123, a well-known P-glycoprotein substrate fluorescent dye, within the Colo320 MDR cells. Tariquidar, a strong P-gp inhibitor, was used as positive control. All tested compounds were dissolved in DMSO, and the final concentration (2.00%) of the solvent was investigated for any effect on the retention of rhodamine 123. […] The cell numbers of the human colon adenocarcinoma cell lines were adjusted to 2 × 10^6 cells/mL, resuspended in serum-free RPMI 1640 medium, and distributed in 0.5 mL aliquots into Eppendorf centrifuge tubes. […] DMSO at 2% v/v was used as solvent control. Next, 10 μL (5.2 μM final concentration) of the fluorochrome and ABCB1 substrate rhodamine 123 (Sigma) were added to the samples, and the cells were incubated for a further 20 min at 37 °C, washed twice, and resuspended in 1 mL of PBS for analysis. The fluorescence of the cell population was measured with a PartecCyFlow flow cytometer (Partec, Münster, Germany). The FAR was calculated as the quotient between FL-1 of the treated/untreated resistant Colo 320 cell line over the treated/untreated sensitive Colo 205 cell line according to the following equation: [drawing 2]

[5] = tested on: Colo 320 colon adenocarcinoma cell line; experiment: Checkerboard combination assay with doxorubicin; assay type: cell-based, human; conditions: for interaction (type of interaction with doxorubicin): Colo 320, based on combination indices; for CI at ED50 (combination index value at the 50% growth inhibition dose): with doxorubicin, Colo 320, 72 h, at best ratio
Experimental: A checkerboard microplate combination assay was performed, which is a widely used in vitro method for the assessment of drug interactions. […] The assay was carried out on the Colo 320 colon adenocarcinoma cell line. The final concentration of the compounds and doxorubicin used in the combination experiment was chosen in accordance with their cytotoxicity toward this cell line. The dilutions of doxorubicin were made in a horizontal direction in 100 μL, and the dilutions of the compounds vertically in the microtiter plate in a 50 μL volume. Then, 6 × 10^3 of Colo 320 cells in 50 μL of the medium were added to each well, except for the medium control wells. The plates were incubated for 72 h at 37 °C in a 5% CO2 atmosphere. The cell growth rate was determined after MTT staining. At the end of the incubation period, 20 μL of MTT solution (from a stock solution of 5 mg/mL) was added to each well. After incubation at 37 °C for 4 h, 100 μL of SDS solution (10% in 0.01 M HCI) was added to each well, and the plates were further incubated at 37 °C overnight. OD was measured at 540 nm (ref 630 nm) with a Multiscan EX ELISA reader.

[6] = tested on: MRC-5 embryonic lung fibroblast cell line; experiment: MTT assay for cytotoxic effect, MRC-5; assay type: cell-based, human; conditions: MTT, 24 h incubation, triplicate
Experimental: as §1

[7] = tested on: sensitive (Colo 205) human colon adenocarcinoma cells; design: method as in PMID 33809760; conditions: sensitive Colo 205 cells; cited from earlier work
[8] = tested on: resistant (Colo 320) human colon adenocarcinoma cells; design: method as in PMID 33809760; conditions: resistant Colo 320 cells; cited from earlier work
[9] = tested on: panel of 71 human cancer cells from 15 tumor types; design: method as in PMID 29931585; conditions: against 27 cell lines of a panel of 71 human cancer cells; read-out: cytotoxicity IC50; cited from earlier work
[10] = MRC-5 embryonic lung fibroblast cells, MTT, 24 h incubation, triplicate, read-out: MRC-5 (IC50 μM) mean

With `CC(=O)O[C@H]1[C@H](OC(=O)C[C@](C)(O)CC(=O)O)C[C@]2(C)C3=C(C(=O)C[C@H]2C1(C)C)[C@]1(C)CC[C@H]([C@H](C)CCC(=O)C(C)(C)O)[C@@]1(C)CC3` [compound 1, pholiol A] the IC50 ([1]; Homo sapiens, COLO 205, 24 h) was greater than 100 µM, the IC50 ([2]; Homo sapiens, COLO 320, 24 h) was greater than 100 µM and the IC50 at 24 h ([3]; MRC-5 (IC50 μM) mean) was greater than 100 µM. For the same compound, the “FAR (fluorescence activity ratio)” value ([4]; human, 20 min, 20 μM) was 3.418, the FL-1 ([4]; human, 20 min, 20 μM) was 39.600 and the “Peak Ch” value ([4]; human, 20 min, 20 μM) was 42.200.

With `COC(=O)C[C@@](C)(O)CC(=O)O[C@@H]1C[C@]2(C)C3=C(C(=O)C[C@H]2C(C)(C)[C@H]1OC(C)=O)[C@]1(C)CC[C@H]([C@H](C)CCC(=O)C(C)(C)O)[C@@]1(C)CC3` [compound 2, pholiol B] the IC50 ([1]; listed as Pholiol B (2)) was 67.9 µM, the IC50 [1] was greater than 25 µM and the IC50 ([2]; listed as Pholiol B (2)) was 61.5 µM. The IC50 [2] was greater than 25 µM, the “FAR (fluorescence activity ratio)” value ([4]; human, 20 min, 20 μM) was 6.880 and the FL-1 ([4]; human, 20 min, 20 μM) was 79.700. The “Peak Ch” value ([4]; human, 20 min, 20 μM) was 77.700, the “interaction (type of interaction with doxorubicin)” value (“interaction” for short) [5] was “synergistic” and the “interaction” value ([5]; listed as pholiol B (2)) was “synergism”. The “CI at ED50 (combination index value at the 50% growth inhibition dose)” value [5] was 0.348.

In the case of `CC(=O)O[C@H]1[C@H](OC(=O)C[C@](C)(O)CC(=O)O)C[C@]2(C)C3=C(CC[C@H]2C1(C)C)[C@]1(C)CC[C@H]([C@H](C)CCC(=O)C(C)(C)O)[C@@]1(C)[C@H](O)C3` [compound 3, pholiol C], the IC50 ([1]; Homo sapiens, COLO 205, 24 h) is reported as greater than 100 µM, the IC50 ([2]; Homo sapiens, COLO 320, 24 h) is reported as greater than 100 µM and the IC50 at 24 h ([3]; MRC-5 (IC50 μM) mean) is reported as greater than 100 µM. The “FAR (fluorescence activity ratio)” value ([4]; human, 20 min, 20 μM) was 0.967, the FL-1 ([4]; human, 20 min, 20 μM) was 11.200 and the “Peak Ch” value ([4]; human, 20 min, 20 μM) was 18.400.

In the case of `COC(=O)C[C@@](C)(O)CC(=O)O[C@@H]1C[C@]2(C)C3=C(CC[C@H]2C(C)(C)[C@H]1OC(C)=O)[C@]1(C)CC[C@H]([C@H](C)CCC(=O)C(C)(C)O)[C@@]1(C)[C@H](O)C3` [compound 4, pholiol D], the IC50 ([1]; listed as Pholiol D (4)) is reported as 51.4 µM, the IC50 [1] is reported as greater than 25 µM and the IC50 [2] is reported as greater than 25 µM. The IC50 ([2]; Homo sapiens, COLO 320, 24 h) was 48.9 µM, the “interaction” value [5] was “synergistic” and the “interaction” value ([5]; listed as pholiol D (4)) was “Synergism”. For the same compound, the “CI at ED50 (combination index value at the 50% growth inhibition dose)” value [5] was 0.660.

Compound `C/C(=C\CC/C=C(\C)CC/C=C(\C)CC[C@H](O)C(C)(C)O)CC/C=C(\C)CC[C@H](O)C(C)(C)O` [compound 5, (3S,6E,10E,14E,18E,22S)-2,3,22,23-tetrahydroxy-2,6,10,15,19,23-hexamethyl-6,10,14,18-tetracosatetraene] has an IC50 [1] greater than 25 µM, an IC50 ([1]; Homo sapiens, COLO 205, 24 h) of 26.7 µM and an IC50 [2] greater than 25 µM. It also gave an IC50 ([2]; Homo sapiens, COLO 320, 24 h) of 27.5 µM, an IC50 at 24 h [3, 10] of 29.1 µM and an IC50 [6] greater than 25 µM. For the same compound, the “FAR (fluorescence activity ratio)” value ([4]; conc. 20 μM, rhodamine 123, Colo 320 vs Colo 205) was 6.638, the “P-gp MDR efflux pump inhibitory activity (in words)” value ([4]; resistant Colo320 cells, rhodamine 123 accumulation) was “inhibition of P-gp MDR efflux pump activity; also recorded: capacity to inhibit the efflux-pump; also recorded: moderate P-gp inhibitory activity” and the “interaction” value [5] was “very strong synergistic; also recorded: synergistic”. The “interaction” value ([5]; listed as compound 5) was “very strong synergism” and the “CI at ED50 (combination index value at the 50% growth inhibition dose)” value [5] was 0.082.

For `CC(C)[C@@H](C)/C=C/[C@@H](C)[C@H]1CC[C@H]2C3=CC=C4C[C@@H](O)CC[C@]4(C)[C@H]3CC[C@]12C` [compound 6, ergosterol], the IC50 at 24 h ([3]; MRC-5 (IC50 μM) mean) was 0.5 µM and the “interaction” value ([5]; listed as ergosterol (6)) was “additive effect; also recorded: nearly additive”.

In the case of `COc1cccc2c1C(=O)c1c(O)c3c(c(O)c1C2=O)C[C@@](O)(C(=O)CO)C[C@@H]3O[C@H]1C[C@H](N)[C@H](O)[C@H](C)O1` [doxorubicin, reference compound], the IC50 [1] is reported as 2.5 µM, the IC50 [2] is reported as 7.4 µM and the IC50 at 24 h [3, 10] is reported as greater than 20 µM.

In the case of `CC(C)[C@@H](C)C=C[C@@H](C)[C@H]1CC[C@H]2C3=CCC4CC(=O)CC[C@]4(C)[C@H]3CC[C@]12C` (stereo partly shown) [ergosta-7,22-diene-3-one], the IC50 [7] is given as 11.6 ± 1.7 µM and the IC50 [8] is given as 8.4 ± 1.1 µM.

In the case of `CC(C)=CCC[C@@H](C)[C@@H]1CC[C@]2(C)C3=C(CC[C@@]12C)[C@@]1(C)CC[C@H](O)C(C)(C)[C@@H]1CC3` [euphol], the IC50 [9] is listed as less than 10 µM.

With `COc1cc2c(cc1OC)CN(CCc1ccc(NC(=O)c3cc(OC)c(OC)cc3NC(=O)c3cnc4ccccc4c3)cc1)CC2` [tariquidar, reference compound] the “FAR (fluorescence activity ratio)” value ([4]; conc. 0.2 μM, positive control, rhodamine 123) was 5.533.
